According to ChEMBL document CHEMBL1681644, “Scaffold oriented synthesis. Part 3: design, synthesis and biological evaluation of novel 5-substituted indazoles as potent and selective kinase inhibitors employing [2+3] cycloadditions” (Bioorg Med Chem Lett, 2011):

Assays:
[1] = molecular target: Vascular endothelial growth factor receptor 2 (Homo sapiens, UniProt P35968); assay: Inhibition of KDR after 1 hr
[2] = molecular target: Glycogen synthase kinase-3 beta (Homo sapiens, UniProt P49841)
Description: Inhibition of GSK3-beta after 1 hr

[3] = molecular target: Serine/threonine-protein kinase PAK 4 (Homo sapiens, UniProt O96013); assay: Inhibition of Pak4 after 1 hr using biotinylated L15 peptide as substrate
Sequence of Serine/threonine-protein kinase PAK 4 (O96013 whole entry): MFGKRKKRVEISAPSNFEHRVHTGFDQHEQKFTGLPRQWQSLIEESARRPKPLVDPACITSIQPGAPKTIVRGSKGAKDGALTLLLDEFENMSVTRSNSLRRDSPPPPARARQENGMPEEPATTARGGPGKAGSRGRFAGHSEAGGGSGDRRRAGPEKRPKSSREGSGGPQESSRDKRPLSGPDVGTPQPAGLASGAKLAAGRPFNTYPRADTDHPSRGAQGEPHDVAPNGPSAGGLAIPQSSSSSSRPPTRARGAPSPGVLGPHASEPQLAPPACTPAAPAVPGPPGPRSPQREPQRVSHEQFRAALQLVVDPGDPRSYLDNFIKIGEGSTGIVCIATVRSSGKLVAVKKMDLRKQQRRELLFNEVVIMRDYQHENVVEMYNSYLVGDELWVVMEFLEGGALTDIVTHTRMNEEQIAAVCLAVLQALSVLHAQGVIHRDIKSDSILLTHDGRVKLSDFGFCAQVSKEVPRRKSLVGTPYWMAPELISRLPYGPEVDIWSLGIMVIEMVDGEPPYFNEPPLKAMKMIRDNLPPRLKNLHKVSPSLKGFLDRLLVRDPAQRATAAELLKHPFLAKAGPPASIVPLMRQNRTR

[4] = molecular target: Rho-associated protein kinase 2 (Homo sapiens, UniProt O75116); assay: Inhibition of Rock2 after 1 hr using biotinylated longS peptide as substrate
[5] = molecular target: Serine/threonine-protein kinase pim-1 (Homo sapiens, UniProt P11309); assay: Inhibition of Pim1 after 1 hr using biotinylated AL1peptide as substrate
Sequence of Serine/threonine-protein kinase pim-1 (P11309 whole entry): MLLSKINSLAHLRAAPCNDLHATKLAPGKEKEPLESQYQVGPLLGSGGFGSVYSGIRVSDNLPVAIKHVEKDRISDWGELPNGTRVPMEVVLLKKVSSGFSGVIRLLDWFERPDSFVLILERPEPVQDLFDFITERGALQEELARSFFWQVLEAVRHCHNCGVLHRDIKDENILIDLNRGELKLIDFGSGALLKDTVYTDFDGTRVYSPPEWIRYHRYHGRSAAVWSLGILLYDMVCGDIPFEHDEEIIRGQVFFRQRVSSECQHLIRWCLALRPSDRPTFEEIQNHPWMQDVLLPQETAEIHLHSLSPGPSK

[6] = molecular target: Epidermal growth factor receptor (Homo sapiens, UniProt P00533)
Sequence of Epidermal growth factor receptor (P00533 whole entry): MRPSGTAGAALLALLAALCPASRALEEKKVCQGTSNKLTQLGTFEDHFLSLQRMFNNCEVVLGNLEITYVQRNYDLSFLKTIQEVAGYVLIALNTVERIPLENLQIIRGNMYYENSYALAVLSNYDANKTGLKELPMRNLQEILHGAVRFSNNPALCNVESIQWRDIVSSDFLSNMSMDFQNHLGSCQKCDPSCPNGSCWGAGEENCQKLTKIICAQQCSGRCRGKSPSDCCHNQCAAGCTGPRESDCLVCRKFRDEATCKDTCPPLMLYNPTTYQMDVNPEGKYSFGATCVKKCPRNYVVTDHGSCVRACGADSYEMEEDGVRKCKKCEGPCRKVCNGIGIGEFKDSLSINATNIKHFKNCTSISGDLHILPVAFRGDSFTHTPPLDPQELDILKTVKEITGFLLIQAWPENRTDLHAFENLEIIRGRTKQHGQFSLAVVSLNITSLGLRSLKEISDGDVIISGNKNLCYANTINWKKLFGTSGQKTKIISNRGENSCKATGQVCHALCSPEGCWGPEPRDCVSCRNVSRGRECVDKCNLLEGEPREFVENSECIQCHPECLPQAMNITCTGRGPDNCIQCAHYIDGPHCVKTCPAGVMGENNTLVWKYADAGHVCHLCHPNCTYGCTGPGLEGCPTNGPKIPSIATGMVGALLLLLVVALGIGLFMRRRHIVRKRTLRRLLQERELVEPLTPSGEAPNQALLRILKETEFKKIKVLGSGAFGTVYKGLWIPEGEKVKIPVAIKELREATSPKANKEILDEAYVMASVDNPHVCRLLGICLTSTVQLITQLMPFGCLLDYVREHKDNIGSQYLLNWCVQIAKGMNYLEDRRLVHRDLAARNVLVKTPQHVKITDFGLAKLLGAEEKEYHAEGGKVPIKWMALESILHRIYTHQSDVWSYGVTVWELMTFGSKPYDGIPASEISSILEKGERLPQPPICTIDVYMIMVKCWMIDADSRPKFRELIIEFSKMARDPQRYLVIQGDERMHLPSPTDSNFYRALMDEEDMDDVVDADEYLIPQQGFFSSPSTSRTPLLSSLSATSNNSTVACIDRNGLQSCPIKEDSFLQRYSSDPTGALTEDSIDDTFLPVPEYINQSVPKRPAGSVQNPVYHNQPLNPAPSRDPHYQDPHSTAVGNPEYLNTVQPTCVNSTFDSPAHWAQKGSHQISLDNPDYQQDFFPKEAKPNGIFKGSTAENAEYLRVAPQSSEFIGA
Description: Inhibition of EGFR after 1 hr

[7] = molecular target: Tyrosine-protein kinase JAK2 (Homo sapiens, UniProt O60674); assay: Inhibition of JAK2 after 1 hr using biotinylated PDKtide as substrate
Sequence of Tyrosine-protein kinase JAK2 (O60674 whole entry): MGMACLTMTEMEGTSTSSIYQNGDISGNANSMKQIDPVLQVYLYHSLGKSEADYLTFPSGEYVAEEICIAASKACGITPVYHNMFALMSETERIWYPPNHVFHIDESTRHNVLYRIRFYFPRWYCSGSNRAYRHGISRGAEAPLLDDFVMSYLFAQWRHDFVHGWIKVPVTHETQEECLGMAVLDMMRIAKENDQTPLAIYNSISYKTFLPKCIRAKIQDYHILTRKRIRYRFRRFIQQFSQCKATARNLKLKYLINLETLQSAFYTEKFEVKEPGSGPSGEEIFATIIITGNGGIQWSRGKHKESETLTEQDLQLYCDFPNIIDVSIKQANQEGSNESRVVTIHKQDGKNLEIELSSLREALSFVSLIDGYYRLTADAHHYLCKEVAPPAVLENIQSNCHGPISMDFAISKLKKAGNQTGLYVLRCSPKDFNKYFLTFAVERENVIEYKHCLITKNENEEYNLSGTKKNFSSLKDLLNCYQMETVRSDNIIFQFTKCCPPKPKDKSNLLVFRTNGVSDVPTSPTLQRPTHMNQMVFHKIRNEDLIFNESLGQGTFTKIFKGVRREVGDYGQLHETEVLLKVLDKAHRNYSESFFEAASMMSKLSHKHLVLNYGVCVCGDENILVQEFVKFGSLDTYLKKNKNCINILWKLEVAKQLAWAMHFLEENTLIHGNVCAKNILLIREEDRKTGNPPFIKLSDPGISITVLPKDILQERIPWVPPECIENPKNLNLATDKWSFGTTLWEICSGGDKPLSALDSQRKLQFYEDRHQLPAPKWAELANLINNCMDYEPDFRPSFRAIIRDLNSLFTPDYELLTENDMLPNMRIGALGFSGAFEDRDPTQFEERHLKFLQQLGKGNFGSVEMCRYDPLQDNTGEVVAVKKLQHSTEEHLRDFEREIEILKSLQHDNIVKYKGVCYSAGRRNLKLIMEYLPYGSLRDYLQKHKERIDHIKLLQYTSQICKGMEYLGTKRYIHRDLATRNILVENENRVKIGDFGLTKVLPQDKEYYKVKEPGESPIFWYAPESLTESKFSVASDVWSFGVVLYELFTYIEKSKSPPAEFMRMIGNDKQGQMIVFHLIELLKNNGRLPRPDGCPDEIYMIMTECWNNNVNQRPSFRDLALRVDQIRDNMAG

Sequence of Vascular endothelial growth factor receptor 2 (P35968 whole entry): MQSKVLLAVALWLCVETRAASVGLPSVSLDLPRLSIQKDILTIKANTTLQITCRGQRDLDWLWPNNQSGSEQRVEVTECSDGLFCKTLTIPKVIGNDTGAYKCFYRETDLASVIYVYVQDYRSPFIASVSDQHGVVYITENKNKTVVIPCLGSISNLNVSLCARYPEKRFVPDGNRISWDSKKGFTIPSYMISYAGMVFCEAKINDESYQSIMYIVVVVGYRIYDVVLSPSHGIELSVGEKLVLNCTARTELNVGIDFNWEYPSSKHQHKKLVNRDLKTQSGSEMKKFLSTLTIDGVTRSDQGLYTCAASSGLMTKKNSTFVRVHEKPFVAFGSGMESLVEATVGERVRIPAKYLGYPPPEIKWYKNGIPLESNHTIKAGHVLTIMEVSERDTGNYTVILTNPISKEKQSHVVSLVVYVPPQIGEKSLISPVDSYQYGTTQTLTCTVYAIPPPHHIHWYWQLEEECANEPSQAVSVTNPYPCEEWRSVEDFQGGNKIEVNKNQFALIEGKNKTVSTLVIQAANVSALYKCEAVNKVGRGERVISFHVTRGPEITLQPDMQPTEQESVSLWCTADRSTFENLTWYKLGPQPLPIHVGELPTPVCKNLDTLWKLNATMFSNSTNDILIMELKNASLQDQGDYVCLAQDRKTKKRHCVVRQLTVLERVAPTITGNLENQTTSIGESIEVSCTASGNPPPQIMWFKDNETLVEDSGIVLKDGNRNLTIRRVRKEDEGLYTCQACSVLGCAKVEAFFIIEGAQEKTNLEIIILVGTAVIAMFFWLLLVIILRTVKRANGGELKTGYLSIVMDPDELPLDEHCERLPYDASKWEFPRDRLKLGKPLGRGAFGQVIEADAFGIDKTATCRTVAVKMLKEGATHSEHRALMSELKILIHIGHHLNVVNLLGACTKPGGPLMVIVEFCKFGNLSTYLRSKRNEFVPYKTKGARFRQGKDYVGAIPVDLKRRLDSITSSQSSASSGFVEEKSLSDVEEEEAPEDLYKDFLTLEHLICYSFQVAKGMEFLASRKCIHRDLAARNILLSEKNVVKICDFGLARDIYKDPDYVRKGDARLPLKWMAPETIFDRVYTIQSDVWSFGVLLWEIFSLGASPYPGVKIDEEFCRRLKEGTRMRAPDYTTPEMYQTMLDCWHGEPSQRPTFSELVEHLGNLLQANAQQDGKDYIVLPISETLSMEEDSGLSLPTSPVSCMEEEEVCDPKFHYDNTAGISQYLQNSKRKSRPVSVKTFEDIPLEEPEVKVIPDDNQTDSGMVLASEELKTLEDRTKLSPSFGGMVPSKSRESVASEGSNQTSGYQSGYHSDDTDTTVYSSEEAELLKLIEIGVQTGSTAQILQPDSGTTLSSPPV
Sequence of Glycogen synthase kinase-3 beta (P49841 whole entry): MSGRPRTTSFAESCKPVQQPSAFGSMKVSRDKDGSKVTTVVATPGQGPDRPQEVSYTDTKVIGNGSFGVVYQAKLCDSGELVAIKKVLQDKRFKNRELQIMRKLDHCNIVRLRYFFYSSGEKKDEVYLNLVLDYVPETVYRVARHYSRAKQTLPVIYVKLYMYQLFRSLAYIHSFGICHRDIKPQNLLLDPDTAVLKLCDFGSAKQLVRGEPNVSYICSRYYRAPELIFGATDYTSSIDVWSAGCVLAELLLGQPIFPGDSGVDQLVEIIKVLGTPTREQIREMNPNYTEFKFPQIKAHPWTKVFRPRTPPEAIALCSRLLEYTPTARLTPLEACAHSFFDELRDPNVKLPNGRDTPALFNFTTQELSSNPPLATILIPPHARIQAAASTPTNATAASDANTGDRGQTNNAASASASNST

| Ki [1] [µM] | Ki [2] [nM] | Ki [3] [µM] | Ki [4] [nM] | Ki [5] [µM] | Ki [6] [nM] | Ki [7] [nM] | SMILES |
| --- | --- | --- | --- | --- | --- | --- | --- |
| > 8.88 | 4270 | > 3.75 | 402 | 3.68 |  |  | CNC(=O)c1cc(-c2ccc3[nH]ncc3c2)on1 |
| > 8.88 | 2030 | > 3.75 | 108 | 8.36 | > 1800 | 756 | CCCc1cn(-c2ccc3[nH]ncc3c2)nn1 |
| > 8.88 | > 5450 | > 3.75 | 635 | > 8.57 | > 1800 | > 1450 | COCc1cn(-c2ccc3[nH]ncc3c2)nn1 |
| > 8.88 | 5220 | > 3.75 | 230 | > 8.57 | > 1800 | 1450 | OCCCc1cn(-c2ccc3[nH]ncc3c2)nn1 |
| > 8.88 | 3470 | > 3.75 | 356 | > 8.57 | > 1800 | 1450 | c1cc2[nH]ncc2cc1-n1cc(C2CC2)nn1 |
| > 8.88 | 1300 | > 3.75 | 44 | > 8.57 | > 1800 | 791 | c1cc2[nH]ncc2cc1-n1cc(C2CCCC2)nn1 |
| > 8.88 | 891 | > 3.75 | 100 | > 8.57 | > 1800 | 281 | c1cc2[nH]ncc2cc1-n1cc(CC2CCCCC2)nn1 |
|  | 542 |  |  |  |  |  | c1ccc(Cc2cn(-c3ccc4[nH]ncc4c3)nn2)cc1 |
| > 8.88 | 446 | > 3.75 | 19 | > 8.57 | > 1800 | 898 | c1ccc(CCc2cn(-c3ccc4[nH]ncc4c3)nn2)cc1 |
| > 8.88 | 528 | > 3.75 | 62 | > 8.57 | > 1800 | 644 | c1ccc(CCCc2cn(-c3ccc4[nH]ncc4c3)nn2)cc1 |
| 3.55 | 448 | 69.9 | 209 | 2.22 |  | 1450 | c1cc2n[nH]cc2cc1-c1c[nH]nn1 |
|  | 45 |  | 97 | 4.15 |  | > 1450 | Clc1ccccc1Cn1cc(-c2ccc3[nH]ncc3c2)nn1 |
| 13.1 | 23 |  | 39 |  |  | 1450 | Clc1cccc(Cn2cc(-c3ccc4[nH]ncc4c3)nn2)c1 |
| 2.71 | 197 |  | 68 | 37.8 |  |  | Clc1ccc(Cn2cc(-c3ccc4[nH]ncc4c3)nn2)cc1 |
| > 0.915 | 91 | 13.1 | 285 | 10.2 |  |  | Fc1ccccc1Cn1cc(-c2ccc3[nH]ncc3c2)nn1 |
|  | 26 |  | 180 | 12 |  |  | Fc1cccc(Cn2cc(-c3ccc4[nH]ncc4c3)nn2)c1 |
|  | 70 |  | 285 | 165 |  |  | Fc1ccc(Cn2cc(-c3ccc4[nH]ncc4c3)nn2)cc1 |
| > 0.915 | 70 |  | 375 |  |  |  | Cc1cccc(Cn2cc(-c3ccc4[nH]ncc4c3)nn2)c1 |
|  | 48 | 67.6 | 15 | 20.3 |  |  | Clc1cccc(Cn2cc(-c3ccc4[nH]ncc4c3)nn2)c1Cl |
| 127 | 16 |  | 18 | 36 |  |  | Clc1ccc(Cl)c(Cn2cc(-c3ccc4[nH]ncc4c3)nn2)c1 |
| > 0.915 | 28 |  | 41 | 41.5 |  |  | Clc1cc(Cl)cc(Cn2cc(-c3ccc4[nH]ncc4c3)nn2)c1 |
| 3.29 | 450 | 3.59 | 16 | 5.16 |  | 16 | Nc1n[nH]c2ccc(-c3cc(Cc4ccccc4)no3)cc12 |
|  | 2530 |  |  |  |  |  | CCCc1cc(-c2ccc3[nH]ncc3c2)on1 |
|  | 3810 |  |  |  |  | > 1450 | c1cc2[nH]ncc2cc1-c1cc(CN2CCCCC2)no1 |
